Test results reported in PMC10482691, “LTP induction by structural rather than enzymatic functions of CaMKII” (Nature, 2023).
“And” between values parts separate entries of the source, which are not always exact repeats. Identical values can stand only once.

Key:
[1] = system: paCaMKII binding to GST-2BC; assay: Blue light-induced paCaMKII pulldown to immobilized GST-2BC; settings: Dark, 100 µM ADP
Excerpt: Extended Data Fig. 1 paCaMKII photoactivation-induced sLTP requires GluN2B binding. Data are presented as mean values +/− SEM. a, Representative images of GFP-paCaMKII WT and mCherry-2BC expressed in cultured hippocampal neurons before and after blue light stimulation. Time course of correlation indices of GFP-paCaMKII and mCh-2BC after photoactivation. Images were acquired in a single plane ever 10 s (n = 4 cells). Scale bar indicates 10 µm. b, Schematic of blue light-induced paCaMKII pulldown to immobilized GST-2BC. c, Binding of […] to immobilized GST-2BC was induced by blue light in the presence of either 100 ADP µM alone or without nucleotide. (n = 4 independent samples; *p < 0.05; one-way Kruskal Wallis with Dunn’s comparison test). Dark:Light+ADP p = 0.0132; Dark:Light-ADP p = 0.1860; Light+ADP:Light-ADP p = 0.9779. d, Schematic of how K42M and I205K CaMKII mutations affect enzymatic activity and the induction of GluN2B binding. e, Representative images of dissociated mouse WT and GluN2B^ΔCaMKII hippocampal cultures expressing GFP-paCaMKII WT and mCherry cell fill before and after photoactivation. Scale bar indicates 5 µm. n = 9, 9 cells; See Fig. 1f, g (right) for quantification. Source data

[2] = biological target: purified CaMKIIα binding to GST–GluN2B-c WT (Homo sapiens, UniProt Q9UQM7); assay: CaMKII binding to immobilized GST–GluN2B-c in vitro; settings: Ca2+/CaM, 4 mM ADP
Description: CaMKII–GluN2B binding assays were done as described[9],[13],[25]. Briefly, GST–GluN2B-c tail (GST–2BC) was immobilized on anti-GST antibody-coated microtiter plates (Thermo Scientific), blocked for 30 min with 5% BSA and then overlaid with […] CaMKII (subunit concentration) in PIPES-buffered saline (pH 7.2) containing 2 mM Ca^2+, 1 μM CaM, 1 mM Mg^2+, 0.1% BSA and 0.1% Tween-20 for 20 min at room temperature. […] After extensive washes in buffer containing 1 mM EGTA, GST–2BC and bound CaMKII were eluted for 10 min in SDS loading buffer at 95 °C. Bound CaMKII was measured via immunoblot.

Nc1ncnc2c1ncn2[C@@H]1O[C@H](COP(=O)(O)OP(=O)(O)O)[C@@H](O)[C@H]1O [ADP]
binding to immobilized GST-2BC (immunoblot) [1]: 54.536 and 63.536 and 53.536
bound CaMKIIα (immunoblot, relative) [2]: 2.712 and 2.4126 and 1.817
